No end group written: not given here.
Each substance was assayed against T1, CR2 receptor on Raji cells (Homo sapiens, UniProt P20023) (assay: Inhibition of direct binding of C3-coated Zymosan to cells (rosette count)). Settings: polypeptide zero to 200 ug in 100 ul, 37 C 30 min, amount behind the value not stated.
T1 construct: endogenous in cells; host or cells: Raji cells (human B lymphoblastoid, ATCC CCL 86)
T1 sequence (P20023 21-1033): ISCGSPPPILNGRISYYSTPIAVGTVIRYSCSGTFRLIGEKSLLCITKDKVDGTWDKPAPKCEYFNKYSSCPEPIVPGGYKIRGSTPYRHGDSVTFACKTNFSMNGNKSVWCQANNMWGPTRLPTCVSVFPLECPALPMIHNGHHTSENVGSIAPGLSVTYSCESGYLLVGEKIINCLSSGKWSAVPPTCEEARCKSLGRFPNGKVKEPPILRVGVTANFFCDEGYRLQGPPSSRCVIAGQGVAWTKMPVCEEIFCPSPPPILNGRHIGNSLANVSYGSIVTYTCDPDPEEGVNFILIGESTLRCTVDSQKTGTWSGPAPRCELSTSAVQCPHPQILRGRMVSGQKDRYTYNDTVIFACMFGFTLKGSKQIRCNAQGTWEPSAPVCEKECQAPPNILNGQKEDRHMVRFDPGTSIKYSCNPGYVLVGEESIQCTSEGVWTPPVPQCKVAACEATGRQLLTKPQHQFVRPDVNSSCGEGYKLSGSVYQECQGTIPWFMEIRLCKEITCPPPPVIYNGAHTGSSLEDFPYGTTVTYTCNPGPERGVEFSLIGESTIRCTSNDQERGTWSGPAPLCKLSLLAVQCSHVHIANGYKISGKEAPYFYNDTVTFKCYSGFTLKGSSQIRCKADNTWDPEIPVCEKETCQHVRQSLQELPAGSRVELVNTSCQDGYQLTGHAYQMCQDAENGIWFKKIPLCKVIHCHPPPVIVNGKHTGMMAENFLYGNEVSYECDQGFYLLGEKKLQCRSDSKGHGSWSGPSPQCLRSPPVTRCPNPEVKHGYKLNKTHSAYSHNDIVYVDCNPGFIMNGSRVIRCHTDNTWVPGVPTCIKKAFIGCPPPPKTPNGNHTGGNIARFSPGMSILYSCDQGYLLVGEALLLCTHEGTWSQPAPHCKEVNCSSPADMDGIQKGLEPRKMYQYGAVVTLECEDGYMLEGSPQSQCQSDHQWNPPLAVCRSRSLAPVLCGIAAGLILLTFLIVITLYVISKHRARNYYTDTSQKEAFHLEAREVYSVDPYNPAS
Procedure: Fresh blood from a healthy donor was collected and maintained at room temperature for 2 hours. Then the blood was centrifuged at 2000 x g for about 10 min and the resulting supernatant was collected. Five mg of Zymosan A particles (Sigma Chemical Co., St. Louis, Mo.) were boiled for 30 min in 20 ml of 150 mM NaCl and washed three times in phosphate-buffered saline (PBS) to form activated Zymosan. One mg of activated Zymosan particles was admixed with 0.5 ml of blood supernatant and maintained at 37 C. for 30 min, and then was washed 3 times in PBS. The washed particles were then resuspended in PBS at a concentration of 0.5 mg/ml to form a C3 -coated Zymosan composition.
Cultures containing 10^5 Raji or HSB2 cells were admixed with varying amounts (zero to 200 ug) of the polypeptides shown in Table 2 in a volume of 100 microliters (ul) of culture medium and the admixture was maintained at 37C for 30 min to allow CR2 ligand polypeptides to bind any CR2 receptor present on the cells. Thereafter, 50 ul of C3 -coated Zymosan composition was added to each culture, the cultures were subjected to centrifugation for 1 min at 600×g and then maintained at 37 C. for 30 min. The maintained cultures were then washed with prewarmed culture medium to rinse off non-bound particles. Washed cultures were observed using a microscope to detect and count the number of particles (rosettes) attached per cell. More than 3 rosettes per cell was counted as C3 specific binding. Inhibition is expressed as the percent decrease in bound rosettes when comparing binding in the presence or absence of admixed polypeptide.

| Inhibition of direct binding of C3-coated Zymosan to cells (percent decrease in bound rosettes) | Substance |
| --- | --- |
| 70% | LYNVEAT [LYNVEAT] |
| 0% | SRRGDMS [SRRGDMS] |
| 35% | NSGVEA [NSGVEA] |
